Experimental data: PubChem BioAssay (NCI)
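The concentration for 50% growth inhibition is given as GI50. Definition used: TGI = concentration required for complete inhibition of growth.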

Legend:
Assay in all cases: growth of human tumour cells (NCI), 384-well format
HOP-62 NSCLC = test system: HOP-62 NSCLC
A549 NSCLC = test system: A549 NSCLC
SK-OV-3 ovarian = test system: SK-OV-3 ovarian
NCI-H460 NSCLC = test system: NCI-H460 NSCLC
MCF7 breast = test system: MCF7 breast
HOP-92 NSCLC = test system: HOP-92 NSCLC
SR leukemia = test system: SR leukemia
MALME-3M melanoma = test system: MALME-3M melanoma
HCT-15 colon = test system: HCT-15 colon
UACC-62 melanoma = test system: UACC-62 melanoma
HCT-116 colon = test system: HCT-116 colon
SK-MEL-28 melanoma = test system: SK-MEL-28 melanoma
KM12 colon = test system: KM12 colon
MDA-MB-231 breast = test system: MDA-MB-231 breast
NCI/ADR-RES ovarian = test system: NCI/ADR-RES ovarian
MDA-MB-435 melanoma = test system: MDA-MB-435 melanoma
TK-10 renal = test system: TK-10 renal
SN12C renal = test system: SN12C renal
SW-620 colon = test system: SW-620 colon
UACC-257 melanoma = test system: UACC-257 melanoma
EKVX NSCLC = test system: EKVX NSCLC
786-0 renal = test system: 786-0 renal
BT-549 breast = test system: BT-549 breast
OVCAR-3 ovarian = test system: OVCAR-3 ovarian
DU-145 prostate = test system: DU-145 prostate
MDA-MB-468 breast = test system: MDA-MB-468 breast
OVCAR-5 ovarian = test system: OVCAR-5 ovarian
IGROV1 ovarian = test system: IGROV1 ovarian
LOX IMVI melanoma = test system: LOX IMVI melanoma
SF-295 CNS = test system: SF-295 CNS
A498 renal = test system: A498 renal
SK-MEL-5 melanoma = test system: SK-MEL-5 melanoma
SNB-75 CNS = test system: SNB-75 CNS
OVCAR-4 ovarian = test system: OVCAR-4 ovarian
HT29 colon = test system: HT29 colon
COLO 205 colon = test system: COLO 205 colon
MOLT-4 leukemia = test system: MOLT-4 leukemia
SNB-19 CNS = test system: SNB-19 CNS
OVCAR-8 ovarian = test system: OVCAR-8 ovarian
CCRF-CEM leukemia = test system: CCRF-CEM leukemia
PC-3 prostate = test system: PC-3 prostate
RXF 393 renal = test system: RXF 393 renal
NCI-H522 lung = test system: NCI-H522 lung
NCI-H322M lung = test system: NCI-H322M lung
ACHN renal = test system: ACHN renal
RPMI-8226 leukemia = test system: RPMI-8226 leukemia
M14 melanoma = test system: M14 melanoma
CAKI-1 renal = test system: CAKI-1 renal
HCC-2998 colon = test system: HCC-2998 colon
T-47D breast = test system: T-47D breast
SF-268 CNS = test system: SF-268 CNS
SF-539 CNS = test system: SF-539 CNS
HL-60(TB) leukemia = test system: HL-60(TB) leukemia
UO-31 renal = test system: UO-31 renal
U251 glioblastoma = test system: U251 glioblastoma
NCI-H23 lung = test system: NCI-H23 lung
HS 578T breast = test system: HS 578T breast
NCI-H226 lung = test system: NCI-H226 lung

C=CC(=O)N1CCC([C@@H]2CCNc3c(C(N)=O)c(-c4ccc(Oc5ccccc5)cc4)nn32)CC1
GI50 (HOP-62 NSCLC): 19.6 µM
TGI (HOP-62 NSCLC): 49.6 µM
GI50 (A549 NSCLC): 16.2 µM
TGI (A549 NSCLC): > 52.4 µM
GI50 (SK-OV-3 ovarian): 14.2 µM
TGI (SK-OV-3 ovarian): > 69.8 µM
GI50 (NCI-H460 NSCLC): 25.2 µM
TGI (NCI-H460 NSCLC): > 61.8 µM
GI50 (MCF7 breast): 23.7 µM
TGI (MCF7 breast): > 69 µM
GI50 (HOP-92 NSCLC): 14.6 µM
TGI (HOP-92 NSCLC): 29.7 µM
GI50 (SR leukemia): 14.2 µM
TGI (SR leukemia): 27.6 µM
GI50 (MALME-3M melanoma): 15.3 µM
TGI (MALME-3M melanoma): 29.1 µM
GI50 (HCT-15 colon): 16.8 µM
TGI (HCT-15 colon): 32.1 µM
GI50 (UACC-62 melanoma): 16.7 µM
TGI (UACC-62 melanoma): 34 µM
GI50 (HCT-116 colon): 17.6 µM
TGI (HCT-116 colon): 32.8 µM
GI50 (SK-MEL-28 melanoma): 18 µM
TGI (SK-MEL-28 melanoma): 33.6 µM
GI50 (KM12 colon): 42.5 µM
TGI (KM12 colon): > 100 µM
GI50 (MDA-MB-231 breast): 17.4 µM
TGI (MDA-MB-231 breast): 33.6 µM
GI50 (NCI/ADR-RES ovarian): 16.9 µM
TGI (NCI/ADR-RES ovarian): 36.5 µM
GI50 (MDA-MB-435 melanoma): 23 µM
TGI (MDA-MB-435 melanoma): 53.7 µM
GI50 (TK-10 renal): 5.89 µM
TGI (TK-10 renal): 27.3 µM
GI50 (SN12C renal): 17.6 µM
TGI (SN12C renal): 55 µM
GI50 (SW-620 colon): 18.7 µM
TGI (SW-620 colon): 36.5 µM
GI50 (UACC-257 melanoma): 17.8 µM
TGI (UACC-257 melanoma): 35.3 µM
GI50 (EKVX NSCLC): 6.77 µM
TGI (EKVX NSCLC): 31.2 µM
GI50 (786-0 renal): 15.4 µM
TGI (786-0 renal): 37.7 µM
GI50 (BT-549 breast): 13.4 µM
TGI (BT-549 breast): 26.4 µM
GI50 (OVCAR-3 ovarian): 9.13 µM
TGI (OVCAR-3 ovarian): 25.6 µM
GI50 (DU-145 prostate): 11.6 µM
TGI (DU-145 prostate): 30.6 µM
GI50 (MDA-MB-468 breast): 0.684 µM
TGI (MDA-MB-468 breast): 4.09 µM
GI50 (OVCAR-5 ovarian): 48.2 µM
TGI (OVCAR-5 ovarian): > 100 µM
GI50 (IGROV1 ovarian): 4.22 µM
TGI (IGROV1 ovarian): 16.9 µM
GI50 (LOX IMVI melanoma): 14.9 µM
TGI (LOX IMVI melanoma): 28.5 µM
GI50 (SF-295 CNS): 28.5 µM
TGI (SF-295 CNS): > 80.2 µM
GI50 (A498 renal): 15.1 µM
TGI (A498 renal): > 56.3 µM
GI50 (SK-MEL-5 melanoma): 15.6 µM
TGI (SK-MEL-5 melanoma): 30 µM
GI50 (SNB-75 CNS): 17.4 µM
TGI (SNB-75 CNS): 50.6 µM
GI50 (OVCAR-4 ovarian): 15.5 µM
TGI (OVCAR-4 ovarian): 45.9 µM
GI50 (HT29 colon): 17.8 µM
TGI (HT29 colon): 33.4 µM
GI50 (COLO 205 colon): 21.7 µM
TGI (COLO 205 colon): 45.6 µM
GI50 (MOLT-4 leukemia): 14.3 µM
TGI (MOLT-4 leukemia): 27.6 µM
GI50 (SNB-19 CNS): 20 µM
TGI (SNB-19 CNS): 51 µM
GI50 (OVCAR-8 ovarian): 17.2 µM
TGI (OVCAR-8 ovarian): 36.1 µM
GI50 (CCRF-CEM leukemia): 19.7 µM
TGI (CCRF-CEM leukemia): 35 µM
GI50 (PC-3 prostate): 31.6 µM
TGI (PC-3 prostate): > 86 µM
GI50 (RXF 393 renal): 7.6 µM
TGI (RXF 393 renal): 20.2 µM
GI50 (NCI-H522 lung): 3.46 µM
TGI (NCI-H522 lung): 12.1 µM
GI50 (NCI-H322M lung): 2.53 µM
TGI (NCI-H322M lung): 15 µM
GI50 (ACHN renal): 9.75 µM
TGI (ACHN renal): 44.6 µM
GI50 (RPMI-8226 leukemia): 16.3 µM
TGI (RPMI-8226 leukemia): 30.7 µM
GI50 (M14 melanoma): 18 µM
TGI (M14 melanoma): 36.8 µM
GI50 (CAKI-1 renal): 14.7 µM
TGI (CAKI-1 renal): 47.7 µM
GI50 (HCC-2998 colon): 11.7 µM
TGI (HCC-2998 colon): 24.2 µM
GI50 (T-47D breast): 7.05 µM
TGI (T-47D breast): > 77.2 µM
GI50 (SF-268 CNS): 15.4 µM
TGI (SF-268 CNS): 40.6 µM
GI50 (SF-539 CNS): 17.8 µM
TGI (SF-539 CNS): 35.7 µM
GI50 (HL-60(TB) leukemia): 17.1 µM
TGI (HL-60(TB) leukemia): 31.3 µM
GI50 (UO-31 renal): 12.1 µM
TGI (UO-31 renal): > 80.8 µM
GI50 (U251 glioblastoma): 19.4 µM
TGI (U251 glioblastoma): 40.7 µM
GI50 (NCI-H23 lung): 16.8 µM
TGI (NCI-H23 lung): 31.6 µM
GI50 (HS 578T breast): 16 µM
TGI (HS 578T breast): 30.8 µM
GI50 (NCI-H226 lung): 14.2 µM
TGI (NCI-H226 lung): 32.3 µM
